{"source": "patent US20120302614A1", "about": "“METHOD FOR IMPROVING CEREBRAL CIRCULATION OR TREATING A CEREBRAL BLOOD FLOW DISORDER” (OSAKA UNIVERSITY, priority 2007, published 2012)", "key": {"[1]": {"tested_on": "Aβ-injected mice", "assay": "Cerebral blood flow response to whisker stimulation (functional hyperemia), Test Example 3", "type": "in vivo, mouse", "details": "Aβ-injected mice with or without treatment", "method": "(§1) • Electrophysiology: Long term potentiation was measured as previously reported (Niisato K, Fujikawa A, Komai S, Shintani T, Watanabe E, Sakaguchi G, Katsuura G, Manabe T, Noda M: Age-dependent enhancement of hippocampal long-term potentiation and impairment of spatial learning through the Rho-associated kinase pathway in protein tyrosine phosphatase receptor type Z-deficient mice. J Neurosci 2005; 25:1081-1088). Transverse hippocampal slices (400 μm thick) were prepared from 5- to 10-week-old mice or from 13- to 31-week-old mice and placed in an interface-type holding chamber for at least 1 hr. […] For the analysis of EPSPs, the inventors measured their early rising phase in order to avoid contamination by voltage-dependent components as much as possible. […] The data are expressed as mean±SEM. […] Cerebral blood flow (CBF) was continuously monitored at the site of perfusion with a laser-Doppler probe positioned stereotaxically on the cortical surface and connected to a computerized data acquisition system. CBF values were expressed as percent increase relative to the resting level. Zero values for CBF were obtained after the heart was stopped by an overdose of isoflurane at the end of the experiment. • Effect of topical application of Aβ40 on functional hyperemia: The cranial window was first perfused with Ringer's solution, and CBF responses to whisker stimulation were recorded. […]"}, "[2]": {"tested_on": "hippocampus (CA1/Schaffer collaterals) of Aβ40-injected mice", "assay": "Long-term potentiation in hippocampal slices, Test Example 3", "type": "in vivo, mouse", "details": "Aβ40-injected mice with or without treatment", "method": "as §1"}, "[3]": {"tested_on": "Aβ injection model (Aβ 1-40 administered intracerebroventricularly)", "assay": "Morris water maze test in Aβ injection model, Test Example 1", "type": "in vivo, ddY mouse", "details": "oral administration for four weeks in advance of Aβ 1-40", "method": "The therapeutic effect of olmesartan medoxomil in Aβ injection model and the dose dependency thereof were examined according to the following experimental schedule. [Experimental Schedule]: Prior to the experiment, 8-week old male ddY mice were administered olmesartan medoxomil (0.5 mg/kg/day, 1 mg/kg/day, 3 mg/kg/day or 6 mg/kg/day) or distilled water orally for four weeks (day −28 to −1). Then, Aβ 1-40 was administered to the mice intracerebroventricularly (day 0). (Although Aβ 1-40 was administered into one of the lateral ventricles in WO 2006/059777, Aβ 1-40 was administered in Test Example 1 to both lateral ventricles with an interval of one day between two administrations. Except for this point, Aβ 1-40 administration was performed in the same manner as in WO 2006/059777.) From one week thereafter, a behavioral test to evaluate cognitive function (Morris water maze test; Morris R et al., J Neuroscience Methods 1984, 11, 47-60) was performed (day 7 to 12). As a negative control, mice which had received oral administration of distilled water for four weeks were administered Aβ 40-1 intracerebroventricularly. The administration of olmesartan medoxomil or distilled water was continued until the end of the behavioral test. Measurements were performed as described below. • Hidden platform test: A platform is placed below the water surface of a water pool 150 cm in diameter filled with white water-colored. Mice are released into the water, and the time it takes them to reach the platform is measured. This trial is performed three times a day and for five consecutive days. As they learn, mice become able to reach the platform more quickly day by day. • Visible platform test: Mice are released into the water under such conditions that they can see the platform. The time it takes them to reach the platform is measured. • Probe test: The platform is removed, and mice are released and allowed to swim freely. Those mice with good learning/memory swim in the quadrant where the platform was located searching for the platform. The time they spent in that quadrant is measured. • Annnulus crossing: The number of times mice crossed the platform in the probe test is counted."}, "[4]": {"tested_on": "Aβ-injected mice", "assay": "Cerebrovascular autoregulation (CBF versus MAP), Test Example 3", "type": "in vivo, mouse", "details": "Aβ-injected mice with or without treatment", "method": "as §1"}}, "note": "“Also recorded” adds a separate entry of the source.", "data": [{"compound": "CCCc1nc(C(C)(C)O)c(C(=O)O)n1Cc1ccc(-c2ccccc2-c2nnn[nH]2)cc1", "note": "[olmesartan, 4-(1-hydroxy-1-methylethyl)-2-propyl-1-[4-[2-(tetrazol-5-yl)phenyl]phenyl]methylimidazole-5-carboxylic acid]", "values": [{"measurement": "Aβ-induced impairment in neurovascular coupling (CBF response to whisker stimulation)", "setting": "[1]", "value": "improved; also recorded: recovery of neurovascular coupling"}, {"measurement": "long-term potentiation (LTP) in hippocampus, field potential slope after tetanic stimulation", "setting": "[2]", "value": "recovery of LTP"}, {"measurement": "cognitive impairment (spatial memory and learning) in Morris water maze test, overall", "setting": "[3]", "value": "ameliorated"}, {"measurement": "cerebrovascular autoregulation impaired by Aβ (relation between CBF and MABP)", "setting": "[4]", "value": "recovered"}]}]}
